PMC5576140 (Antiviral research, 2017)
pEC50: −log10 of the molar value. ≈ marks a conversion by molar mass, not a printed value. Where two headings read alike, the source gives them in different places.

Assays:
HIV-1 X4LAI.04 = assay: HIV-1 inhibition in MT-4 cell cultures; format: cell-based; conditions: read-out: EC50 (MT-4)
[1] = Viability assay in MT-4 cell cultures; format: cell-based; conditions: human, MT-4 cells
M. tuberculosis H37Rv = assay: Anti-TB activity, growth in Middlebrook 7H9 medium, BACTEC MGIT960; format: cell-based; conditions: growth inhibition not less than 99%
M. tuberculosis MS-115 = assay: as above; format: cell-based; conditions: clinical MDR strain
[2] = format: in vitro ADME; conditions: for hydrolysis products found in human blood serum: HPLC-HRMS; for stability in human blood serum: 15 h
[3] = Chemical stability at pH 2.2, 7.4 and 9.0; format: physicochemical; conditions: pH 9.0 (glycine+NaOH)
[4] = MT-4 cell cultures, HIV-1 X4LAI.04, 3 days, p24gag
[5] = growth inhibition not less than 99%
[6] = value in brackets, same MIC in μM

Row | Molecule | pEC50 (HIV-1 X4LAI.04; Human immunodeficiency virus 1, MT4, 72 h) | CC50 [1] [nM] | pEC50 (HIV-1 X4LAI.04; [4]) | MIC (99) M.tuberculosis H37Rv (M. tuberculosis H37Rv) [µg/mL] | MIC (99) M.tuberculosis MS-115 (M. tuberculosis MS-115; [5]) [µg/mL] | MIC (99) M.tuberculosis MS-115 (M. tuberculosis MS-115; [6]) [µM] | hydrolysis products found in human blood serum [2] | stability to chemical hydrolysis [3] | stability in human blood serum [2] | T1/2 in human blood serum [2] [min]
1 | Cc1cn([C@H]2C[C@H](N=[N+]=[N-])[C@@H](CO)O2)c(=O)[nH]c1=O [AZT, 3′-azido-3′-deoxythymidine, reference compound] | 7.52 | > 100000 |  |  |  |  |  |  |  | 
2 | CCCCCCCCCCc1cn(Cc2cn([C@H]3C[C@H](O)[C@@H](COC(=O)OC[C@H]4O[C@@H](n5cc(C)c(=O)[nH]c5=O)C[C@@H]4N=[N+]=[N-])O3)c(=O)[nH]c2=O)nn1 [Compound 1, 5′-O-[AZT-carbonyl]-5-[(4-decyl-1,2,3-triazol-1-yl)methyl]-2′-deoxyuridine] |  |  | 6.41 | 50 (≈ 67.3 µM) | 50 | 67 | both AZT and dU^R derivative |  |  | 
3 | CCCCCCCCCCc1cn(Cc2cn([C@H]3C[C@H](OC(=O)OC[C@H]4O[C@@H](n5cc(C)c(=O)[nH]c5=O)C[C@@H]4N=[N+]=[N-])[C@@H](CO)O3)c(=O)[nH]c2=O)nn1 [Compound 2, 3′-O-[AZT-carbonyl]-5-[(4-decyl-1,2,3-triazol-1-yl)methyl]-2′-deoxyuridine] |  |  | 7.15 | 10 (≈ 13.5 µM) | 20 | 27 | both AZT and dU^R derivative |  |  | 
4 | CCCCCCCCCCc1cn(Cc2cn([C@H]3C[C@H](OC(=O)OC[C@H]4O[C@@H](n5cc(C)c(=O)[nH]c5=O)C[C@@H]4N=[N+]=[N-])[C@@H](COC(=O)OC[C@H]4O[C@@H](n5cc(C)c(=O)[nH]c5=O)C[C@@H]4N=[N+]=[N-])O3)c(=O)[nH]c2=O)nn1 [Compound 3, 3′,5′-di-O-[AZT-carbonyl]-5-[(4-decyl-1,2,3-triazol-1-yl)methyl]-2′-deoxyuridine] |  |  | 7.10 | 20 (≈ 19.3 µM) | 10 | 9.7 | 1, 2, AZT, and dU^R |  |  | 
5 | CCCCOc1ccc(Nc2cn(C3C=CC(O)C3)c(=O)n(CCCn3c(=O)c(C)cn(C4CC(N=[N+]=[N-])C(CO)O4)c3=O)c2=O)cc1 (stereo not drawn) [Compound 5, [AZT]-N3-propyl-N3-[1-N-(4′-hydroxycyclopent-2′-enyl)-5-(p-butoxyphenylamino)]uracil] |  |  | 4.89 | > 50 | 50 | 75 |  | stable | stable | 
6 | Cc1cn([C@H]2C[C@H](O)[C@@H](COP(=O)(O)O)O2)c(=O)[nH]c1=O [TMP, reference compound] |  |  |  |  |  |  |  |  |  | 20
7 | [AZT]-N3-propyl-N3-[1-N-[4′-(o,o-dimethylbenzyl)cyclopent-2′-enyl]uracil] [Compound 4] |  |  | 4.70 |  |  |  |  | stable | only slight debenzoylation at the carbocyclic fragment | 
